According to US20180168160A1, “MICROBICIDAL COMPOSITION” (Rohm and Haas Company, priority 2015, published 2018):
Read-outs that look alike come from different tables or passages of the source.

Columns and labels:
[1] = test system: consortium of selected bacterial species, Escherichia coli (ATCC #25922), Pseudomonas aeruginosa (ATCC #9027, Staphylococcus aureus (ATCC #6538) and Klebsiella …); assay: Synergy test, high resolution MIC microtiter plate assay against a bacterial consortium; type: cell-based; details: M9GY medium, 35° C., 24 hrs, visual turbidity, active ingredient basis
Description: (§1) One measure of synergism is the industrially accepted method described by Kull, F. C.; Eisman, P. C.; Sylwestrowicz, H. D. and Mayer, R. L., in Applied Microbiology 9:538-541 (1961), using the ratio determined by the formula: Qa/QA+Qb/QB=Synergy Index (“SI”) wherein: QA=concentration of compound A (first component) in ppm, acting alone, which produced an end point (MIC of Compound A). QA=concentration of compound A in ppm, in the mixture, which produced an end point. QB=concentration of compound B (second component) in ppm, acting alone, which produced an end point (MIC of Compound B). Qb=concentration of compound B in ppm, in the mixture, which produced an end point.
(§2) When the sum of Qa/QA and Qb/QB is greater than one, antagonism is indicated. […] The lower the SI, the greater the synergy shown by that particular mixture. The minimum inhibitory concentration (MIC) of a microbicide is the lowest concentration tested under a specific set of conditions that prevents the growth of added microorganisms.
(§3) Synergy tests were conducted using standard microtiter plate assays with media designed for optimal growth of the test microorganism. Minimal salt medium supplemented with 0.2% glucose and 0.1% yeast extract (M9GY medium) was used for testing bacteria. In this method, a wide range of combinations of microbicides was tested by conducting high resolution MIC assays in the presence of various concentrations of DMDMH and Dazomet or THNM and Dazomet. High resolution MICs were determined by adding varying amounts of microbicide to one column of a microtiter plate and doing subsequent […] dilutions using an automated liquid handling system to obtain a series of endpoints ranging from 2 ppm to 1,000 ppm active ingredient.
(§4) The synergy of the combinations of the present invention was determined against a consortium of selected bacterial species, Escherichia coli (ATCC #25922), Pseudomonas aeruginosa (ATCC #9027, Staphylococcus aureus (ATCC #6538) and Klebsiella pneumoniae (ATCC #13883). The consortium was prepared using approximately 1×10^6 CFU per mL of each species. These microorganisms are representative of natural contaminants in many industrial applications. The plates were visually evaluated for microbial growth (turbidity) to determine the MIC after selected incubation times at 35° C. after 24 hrs.
(§5) In each test, Second Component (B) was Dazomet and the First Component (A) was DMDMH.

[2] = as above; type: cell-based; details: M9GY medium, 35° C., 24 hrs, visual turbidity, active ingredient basis
Description: as §1, §2, §3, §4, §5

For `CC1(C)C(=O)N(CO)C(=O)N1CO` [DMDMH, dimethylol-dimethylhydantoin], the “MIC of DMDMH alone (QA)” value ([1]; Table 1) was 200 µg/mL.
For `CN1CSC(=S)N(C)C1` [Dazomet, 3,5-dimethyl-1,3,5-thiadiazinane-2-thione], the MIC ([2]; Table 1, read-out: MIC of Dazomet alone (QB)) was 100 µg/mL and the “MIC of Dazomet alone (QB)” value ([1]; Table 2) was 100 µg/mL.
`O=[N+]([O-])C(CO)(CO)CO` [THNM, tris(hydroxymethyl)nitromethane] showed an MIC ([2]; Table 2, read-out: MIC of THNM alone (QA)) of 400 µg/mL.
